ChEMBL document CHEMBL1143445, “Highly cytotoxic and neurotoxic acetogenins of the Annonaceae: new putative biological targets of squamocin detected by activity-based protein profiling” (Bioorg Med Chem Lett, 2008)
Activity calls are given as the source filed them. No cut-off for these calls is given here.

Columns and labels:
[1] = Drug uptake in mitochondria of human HeLa cells assessed as intracellular localization after 6 hrs; type: ADME
[2] = molecular target: COP9 signalosome complex subunit 7b (Homo sapiens) (UniProt Q9H9Q2); test: Binding affinity to COP9 signalosome complex subunit 7b in human Jurkat cells at 10 uM after 24 hrs by 2D electrophoresis; type: cell-based
Sequence of COP9 signalosome complex subunit 7b (Homo sapiens) (Q9H9Q2 whole entry, one chain of several): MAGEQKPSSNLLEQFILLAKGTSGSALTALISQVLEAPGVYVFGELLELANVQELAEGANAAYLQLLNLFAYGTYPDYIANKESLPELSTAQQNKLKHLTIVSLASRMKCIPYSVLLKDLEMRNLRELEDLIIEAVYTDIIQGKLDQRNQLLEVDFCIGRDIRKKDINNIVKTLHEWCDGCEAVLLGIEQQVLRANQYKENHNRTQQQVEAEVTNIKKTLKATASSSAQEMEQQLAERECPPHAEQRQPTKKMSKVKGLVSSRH

[3] = molecular target: T1, Glutathione S-transferase omega-1 (Homo sapiens) (UniProt P78417); test: Binding affinity to glutathione transferase omega 1 in human Jurkat cells at 10 uM after 24 hrs by 2D electrophoresis; type: cell-based
T1 sequence (whole entry): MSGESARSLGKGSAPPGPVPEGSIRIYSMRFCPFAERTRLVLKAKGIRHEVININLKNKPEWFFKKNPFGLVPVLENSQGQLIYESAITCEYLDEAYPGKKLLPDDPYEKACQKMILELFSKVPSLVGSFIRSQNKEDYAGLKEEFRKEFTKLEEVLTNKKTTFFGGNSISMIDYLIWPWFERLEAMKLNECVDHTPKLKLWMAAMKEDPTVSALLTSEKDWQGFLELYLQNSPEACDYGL

[4] = molecular target: Succinate dehydrogenase [ubiquinone] flavoprotein subunit, mitochondrial (Homo sapiens) (UniProt P31040); test: Binding affinity to flavoprotein subunit of succinate dehydrogenase in human Jurkat cells at 10 uM after 24 hrs by 2D electrophoresis; type: cell-based
Sequence of Succinate dehydrogenase [ubiquinone] flavoprotein subunit, mitochondrial (Homo sapiens) (P31040 whole entry): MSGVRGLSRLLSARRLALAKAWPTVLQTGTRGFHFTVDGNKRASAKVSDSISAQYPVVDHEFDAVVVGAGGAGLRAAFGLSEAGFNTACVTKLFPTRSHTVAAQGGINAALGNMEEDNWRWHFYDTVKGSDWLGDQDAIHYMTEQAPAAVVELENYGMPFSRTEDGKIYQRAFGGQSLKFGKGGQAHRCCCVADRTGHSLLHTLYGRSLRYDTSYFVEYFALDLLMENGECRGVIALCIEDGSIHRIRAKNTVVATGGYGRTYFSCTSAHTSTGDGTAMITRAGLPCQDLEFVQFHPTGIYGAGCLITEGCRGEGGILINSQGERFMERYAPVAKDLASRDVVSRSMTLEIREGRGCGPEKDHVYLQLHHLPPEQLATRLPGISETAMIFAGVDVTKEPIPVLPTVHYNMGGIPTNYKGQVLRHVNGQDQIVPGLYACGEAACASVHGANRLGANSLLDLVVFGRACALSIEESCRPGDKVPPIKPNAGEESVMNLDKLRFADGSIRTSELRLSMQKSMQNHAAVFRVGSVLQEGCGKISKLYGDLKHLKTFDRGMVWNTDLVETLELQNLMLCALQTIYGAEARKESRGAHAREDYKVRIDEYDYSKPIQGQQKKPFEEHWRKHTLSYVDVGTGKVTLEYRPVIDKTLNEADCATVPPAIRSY

[5] = molecular target: Protein disulfide-isomerase (Homo sapiens) (UniProt P07237); test: Binding affinity to disulfide isomerase in human Jurkat cells at 10 uM after 24 hrs by 2D electrophoresis; type: cell-based
Sequence of Protein disulfide-isomerase (Homo sapiens) (P07237 18-508 limits assumed): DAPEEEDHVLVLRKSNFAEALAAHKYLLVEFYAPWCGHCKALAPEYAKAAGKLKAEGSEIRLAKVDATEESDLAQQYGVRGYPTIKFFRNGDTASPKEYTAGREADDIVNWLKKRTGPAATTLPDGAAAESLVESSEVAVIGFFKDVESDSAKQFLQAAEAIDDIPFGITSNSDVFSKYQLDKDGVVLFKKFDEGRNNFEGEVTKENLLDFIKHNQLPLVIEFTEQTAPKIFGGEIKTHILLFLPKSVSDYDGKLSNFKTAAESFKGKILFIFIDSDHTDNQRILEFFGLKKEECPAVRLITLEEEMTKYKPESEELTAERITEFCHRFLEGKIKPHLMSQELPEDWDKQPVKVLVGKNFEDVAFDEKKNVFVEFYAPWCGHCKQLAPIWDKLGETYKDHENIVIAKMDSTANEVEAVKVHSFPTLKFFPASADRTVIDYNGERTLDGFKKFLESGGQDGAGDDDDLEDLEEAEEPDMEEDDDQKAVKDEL

Activity [1]	Activity [2]	Activity [3]	Activity [4]	Activity [5]	SMILES
71%	Active	Active	Active	Active	CCCCCC[C@H](CCC[C@H](O)[C@H]1CC[C@@H]([C@H]2CC[C@@H]([C@H](O)CCCCCCCCCCCC3=C[C@H](C)OC3=O)O2)O1)n1cc(CCc2ccc3c(c2)Oc2cc(O)ccc2C32OC(=O)c3ccccc32)nn1 (stereo partly specified)
62%	–	–	–	–	CCCCCC[C@H](O)CCC[C@H](O)[C@H]1CC[C@@H]([C@H]2CC[C@@H]([C@H](O)CCCCCCCCCCCn3cc(COc4ccc5c(c4)Oc4cc(O)ccc4C54OC(=O)c5ccccc54)nn3)O2)O1 (stereo partly specified)
